# Source: the supplement of paper PMC11061612
# Experiments:
# [1] = test system: FLO-1 (Esophageal Adenocarcinoma); assay: combination Emax (second highest fraction inhibited in the dose matrix, 72 h); higher = more inhibition; extreme values may be limits of the assay
# In short: (§1)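 Bliss excess equals the observed combination effect minus the expected value EA + EB − EA·EB, where EA and EB are the effects of each agent alone. Combination Emax is the second-highest inhibition within the matrix. Inhibition was scaled from CellTiter-Glo 2.0 luminescence, with 0 set by vehicle wells and 1 by blank wells, after 72 hours of two-drug dosing of cells plated in 1536-well plates.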
# [2] = test system: NCI-H1623 (Lung Adenocarcinoma); assay: as above
# In short: as §1
# [3] = test system: NKM-1 (Acute Myeloid Leukemia); assay: as above
# In short: as §1
# [4] = test system: LOUCY (T-Lymphoblastic Leukemia); assay: as above
# In short: as §1
# [5] = test system: Caov-3 (Ovarian Carcinoma); assay: as above
# In short: as §1
# [6] = test system: COLO-684 (Endometrial Carcinoma); assay: as above
# In short: as §1
# [7] = test system: HTC-C3 (Thyroid Gland Carcinoma); assay: as above
# In short: as §1
# [8] = test system: OVTOKO (Ovarian Carcinoma); assay: as above
# In short: as §1
# [9] = test system: BALL-1 (B-Lymphoblastic Leukemia); assay: as above
# In short: as §1
# [10] = test system: SNU-175 (Colorectal Carcinoma); assay: as above
# In short: as §1
# [11] = test system: OCI-AML5 (Acute Myeloid Leukemia); assay: as above
# In short: as §1
# [12] = test system: RPMI-8866 (Chronic Myelogenous Leukemia); assay: as above
# In short: as §1
# [13] = test system: NCI-H1563 (Lung Adenocarcinoma); assay: as above
# In short: as §1
# CHL-1 (Melanoma) = assay: as above
# In short: as §1
# [14] = test system: NCI-H1755 (Lung Adenocarcinoma); assay: as above
# In short: as §1
# [15] = test system: RL95-2 (Endometrial Carcinoma); assay: as above
# In short: as §1
# [16] = test system: EB-3 (Burkitt's Lymphoma); assay: as above
# In short: as §1
# 786-0 (Kidney Carcinoma) = assay: as above
# In short: as §1
# [17] = test system: NKM-1 (Acute Myeloid Leukemia); assay: Bliss excess, mean over the matrix (fraction); higher = more synergy
# In short: as §1
# HuO-3N1 (Osteosarcoma) = assay: as above
# In short: as §1
Structure (SMILES),combination Emax [1],combination Emax [2],combination Emax [3],combination Emax [4],combination Emax [5],combination Emax [6],combination Emax [7],combination Emax [8],combination Emax [9],combination Emax [10],combination Emax [11],combination Emax [12],combination Emax [13],combination Emax (CHL-1 (Melanoma)),combination Emax [14],combination Emax [15],combination Emax [16],combination Emax (786-0 (Kidney Carcinoma)),Bliss excess [17],Bliss excess (HuO-3N1 (Osteosarcoma))
"Cc1c2c(nn1C)CSCc1cc(n(C)n1)CSc1cc(c3ccccc3c1)OCCCc1c(C(=O)O)n(C)c3c-2c(Cl)ccc13 [AZD5991] + CCN(CCO)CCCOc1ccc2c(Nc3cc(CC(=O)Nc4cccc(F)c4)[nH]n3)ncnc2c1 [AZD2811] (first compound max 1 µM, 7x7, partner max 1 µM)",0.489,0.899,0.969,0.983,0.896,0.381,0.235,0.241,0.875,0.96,1,0.764,0.517,0.933,0.619,1,0.35,0.35,0.0291,0.0023
"Cc1c2c(nn1C)CSCc1cc(n(C)n1)CSc1cc(c3ccccc3c1)OCCCc1c(C(=O)O)n(C)c3c-2c(Cl)ccc13 [AZD5991] + C[C@@H]1COCCN1C2=NC(=NC(=C2)C3(CC3)[S@](=N)(=O)C)C4=C5C=CNC5=NC=C4 [AZD6738] (first compound max 1 µM, 7x7, partner max 10 µM)",0.686,0.997,0.995,0.993,0.763,0.741,0.686,0.452,1,0.862,1,0.973,0.774,0.906,0.854,1,0.604,0.748,0.024,0.0446
"Cc1c2c(nn1C)CSCc1cc(n(C)n1)CSc1cc(c3ccccc3c1)OCCCc1c(C(=O)O)n(C)c3c-2c(Cl)ccc13 [AZD5991] + C[C@@H](Nc1cc(F)cc(F)c1)c1cc(C(=O)N(C)C)cc2c(=O)cc(N3CCOCC3)oc12 [AZD8186] (first compound max 1 µM, 7x7, partner max 3 µM)",0.48,0.986,1,0.47,0.374,0.42,0.277,0.605,0.374,0.723,1,0.592,0.824,0.485,0.418,0.95,0.262,0.374,-0.0247,0.0324
"Cc1c2c(nn1C)CSCc1cc(n(C)n1)CSc1cc(c3ccccc3c1)OCCCc1c(C(=O)O)n(C)c3c-2c(Cl)ccc13 [AZD5991] + Cc1cc2ncnn2cc1Nc1ncc2c(n1)n(C1CCOCC1)c(=O)n2C [AZD7648] (first compound max 1 µM, 7x7, partner max 10 µM)",0.489,0.952,0.984,0.82,0.388,0.315,0.245,0.41,0.556,0.461,1,0.533,0.701,0.346,0.418,0.999,0.456,0.251,-0.0265,-0.0229
"C[C@@H]1COCCN1c1cc(C2([S@](C)(=N)=O)CC2)nc(-c2ccnc3[nH]ccc23)n1 [AZD6738] + O=C(c1cc(Cc2n[nH]c(=O)c3ccccc23)ccc1F)N1CCN(C(=O)C2CC2)CC1 [Olaparib] (first compound max 10 µM, 7x7, partner max 10 µM)",0.75,0.693,0.902,0.974,0.699,0.685,0.83,0.398,0.983,0.532,0.907,0.982,0.223,0.577,0.793,0.641,0.617,0.679,-0.0366,-0.0071
"Cc1cc2ncnn2cc1Nc1ncc2c(n1)n(C1CCOCC1)c(=O)n2C [AZD7648] + C=CCn1c(=O)c2cnc(Nc3ccc(N4CCN(C)CC4)cc3)nc2n1-c1cccc(C(C)(C)O)n1 [AZD1775] (first compound max 10 µM, partner max 1 µM)",0.802,0.505,0.884,1,0.727,0.722,0.383,0.561,0.983,0.53,0.947,0.971,0.629,0.704,0.77,0.408,0.667,0.595,-0.0556,-0.0205
"Cc1cc2ncnn2cc1Nc1ncc2c(n1)n(C1CCOCC1)c(=O)n2C [AZD7648] + CCN(CCO)CCCOc1ccc2c(Nc3cc(CC(=O)Nc4cccc(F)c4)[nH]n3)ncnc2c1 [AZD2811] (first compound max 10 µM, 7x7, partner max 1 µM)",0.406,0.28,0.605,0.948,0.885,0.302,0.202,0.232,0.53,0.646,0.969,0.732,0.555,0.308,0.599,0.595,0.554,0.215,0.0545,-0.0184
"Cc1cc2ncnn2cc1Nc1ncc2c(n1)n(C1CCOCC1)c(=O)n2C [AZD7648] + CN(C)CCCOc1ccc(-c2ccc3ncc4c(c3c2)n(C2CCOCC2)c(=O)n4C)cn1 [AZD0156] (first compound max 10 µM, 7x7, partner max 1 µM)",0.358,0.257,0.384,0.604,0.366,0.28,0.161,0.229,0.295,0.173,0.297,0.638,0.49,0.253,0.362,0.246,0.585,0.18,-0.0039,-0.0416
"Cc1cc2ncnn2cc1Nc1ncc2c(n1)n(C1CCOCC1)c(=O)n2C [AZD7648] + C[C@@H]1COCCN1C2=NC(=NC(=C2)C3(CC3)[S@](=N)(=O)C)C4=C5C=CNC5=NC=C4 [AZD6738] (first compound max 10 µM, 7x7, partner max 10 µM)",0.668,0.588,0.839,1,0.773,0.764,0.802,0.344,0.986,0.537,0.882,0.969,0.498,0.798,0.883,0.592,0.663,0.694,-0.0051,0.0042
"Cc1cc2ncnn2cc1Nc1ncc2c(n1)n(C1CCOCC1)c(=O)n2C [AZD7648] + O=C(c1cc(Cc2n[nH]c(=O)c3ccccc23)ccc1F)N1CCN(C(=O)C2CC2)CC1 [Olaparib] (first compound max 10 µM, 7x7, partner max 10 µM)",0.208,0.446,0.73,0.444,0.28,0.238,0.214,0.186,0.826,0.0944,0.25,0.594,0.331,0.134,0.263,0.264,0.377,0.101,0.0104,-0.031
"COc1cccc2c1C(=O)c1c(O)c3c(c(O)c1C2=O)C[C@@](O)(C(=O)CO)C[C@@H]3O[C@H]1C[C@H](N)[C@H](O)[C@H](C)O1 [Doxorubicin] + Cc1cc2ncnn2cc1Nc1ncc2c(n1)n(C1CCOCC1)c(=O)n2C [AZD7648] (first compound max 1 µM, 7x7, partner max 10 µM)",0.927,0.647,0.988,0.943,0.826,0.627,0.427,0.216,0.99,0.823,0.988,0.996,0.58,0.767,0.776,0.376,0.919,0.82,0.0803,-0.0523
"COc1cccc(OCCCN)c1-c1cc(Nc2cnc(C#N)cn2)n[nH]1 [Prexasertib] + C=CCn1c(=O)c2cnc(Nc3ccc(N4CCN(C)CC4)cc3)nc2n1-c1cccc(C(C)(C)O)n1 [AZD1775] (first compound max 1 µM, partner max 1 µM)",0.94,0.841,0.956,1,0.798,0.856,0.911,0.606,0.997,0.744,1,1,0.482,0.845,0.926,0.957,0.818,0.957,0.056,0.122
"COc1cccc(OCCCN)c1-c1cc(Nc2cnc(C#N)cn2)n[nH]1 [Prexasertib] + CCc1c2c(nc3ccc(O)cc13)-c1cc3c(c(=O)n1C2)COC(=O)[C@]3(O)CC [SN-38] (first compound max 1 µM, 7x7, partner max 0.3 µM)",0.918,0.987,0.938,1,0.984,0.956,0.966,0.532,1,0.734,1,1,0.629,0.877,0.952,0.979,0.87,0.938,-0.0554,-0.0105
